According to ChEMBL document CHEMBL1201862, “PubChem BioAssay data set” (2004):
Activity calls are given as the source filed them.

How the values were obtained:
SN12K1 = assay: cells; format: functional; conditions: Homo sapiens
P388/ADR = assay: cells; format: functional; conditions: Mus musculus
P388 = assay: cells; format: functional; conditions: Mus musculus
[1] = molecular target: T1, Ubiquitin-conjugating enzyme E2 N (Homo sapiens, UniProt P61088); format: functional
T1 sequence (P61088 whole entry): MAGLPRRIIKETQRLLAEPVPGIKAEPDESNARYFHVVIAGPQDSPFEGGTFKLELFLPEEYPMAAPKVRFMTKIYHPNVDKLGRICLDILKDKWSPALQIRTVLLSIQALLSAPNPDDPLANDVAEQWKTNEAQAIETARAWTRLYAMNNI

Streptokinase A = molecular target: T2, Streptokinase A (Streptococcus pyogenes serotype M1, UniProt P10520); assay: viability-normalized secreted streptokinase activity reduction – plasminogen activation absorbance, OD405, dose response (AID 1914); format: functional, Streptococcus pyogenes M1 GAS;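 further: secreted streptokinase activity via plasminogen activation per viability signal from cell pellet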
T2 sequence (P10520 whole entry): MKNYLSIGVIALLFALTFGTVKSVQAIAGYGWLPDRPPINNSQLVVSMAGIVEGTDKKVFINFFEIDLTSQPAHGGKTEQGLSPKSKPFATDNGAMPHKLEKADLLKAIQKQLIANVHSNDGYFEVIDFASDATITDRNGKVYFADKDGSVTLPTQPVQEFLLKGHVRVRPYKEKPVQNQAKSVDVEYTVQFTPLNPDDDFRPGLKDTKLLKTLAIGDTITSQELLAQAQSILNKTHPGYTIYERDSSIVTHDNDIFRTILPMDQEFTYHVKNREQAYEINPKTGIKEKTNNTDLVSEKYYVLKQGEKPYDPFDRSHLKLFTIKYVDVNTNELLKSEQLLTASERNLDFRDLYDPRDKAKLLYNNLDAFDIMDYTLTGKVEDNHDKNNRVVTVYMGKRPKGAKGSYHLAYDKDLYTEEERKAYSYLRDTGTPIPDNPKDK

Bcl-2-related protein A1 = molecular target: T3, Bcl-2-related protein A1 (Mus musculus, UniProt Q07440); format: functional;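 further: confirmatory dose–response counterscreen on Bfl-1, used to check hits from a UBC13 polyubiquitin inhibitor campaign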
T3 sequence (Q07440 whole entry): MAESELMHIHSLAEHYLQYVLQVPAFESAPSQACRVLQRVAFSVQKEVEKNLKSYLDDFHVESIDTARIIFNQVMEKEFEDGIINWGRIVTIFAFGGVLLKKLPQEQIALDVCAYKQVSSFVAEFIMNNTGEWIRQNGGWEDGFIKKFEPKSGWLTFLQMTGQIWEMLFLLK

[2] = molecular target: T1, Ubiquitin-conjugating enzyme E2 N; format: functional; remark: listed apart in the source
Streptococcus = assay: GAS UMAA2166 growth inhibition – luminescence, BacTiterGlo, counter-screen for streptokinase expression inhibitor project, dose response (AID 1915); format: functional, organism-based;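 further: potency for reduction of bacterial viability or growth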
[3] = HPDE-C7 pancreatic duct cell viability loss – fluorescence, HTS (AID 430); format: functional, cell-based; conditions: Homo sapiens
[4] = molecular target: T4, Long-chain-fatty-acid--AMP ligase FadD28 (Mycobacterium tuberculosis, UniProt P9WQ59); assay: Fluorescence polarization aasay to screen for inhibitors that compete for the binding of FadD28 to a bisubstrate Measured in Biochemical System Using Plate Reader - 2147-01_Inhibitor_Dose_CherryPick_Activity.; format: functional, Mycobacterium tuberculosis H37Rv
T4 sequence (P9WQ59 whole entry): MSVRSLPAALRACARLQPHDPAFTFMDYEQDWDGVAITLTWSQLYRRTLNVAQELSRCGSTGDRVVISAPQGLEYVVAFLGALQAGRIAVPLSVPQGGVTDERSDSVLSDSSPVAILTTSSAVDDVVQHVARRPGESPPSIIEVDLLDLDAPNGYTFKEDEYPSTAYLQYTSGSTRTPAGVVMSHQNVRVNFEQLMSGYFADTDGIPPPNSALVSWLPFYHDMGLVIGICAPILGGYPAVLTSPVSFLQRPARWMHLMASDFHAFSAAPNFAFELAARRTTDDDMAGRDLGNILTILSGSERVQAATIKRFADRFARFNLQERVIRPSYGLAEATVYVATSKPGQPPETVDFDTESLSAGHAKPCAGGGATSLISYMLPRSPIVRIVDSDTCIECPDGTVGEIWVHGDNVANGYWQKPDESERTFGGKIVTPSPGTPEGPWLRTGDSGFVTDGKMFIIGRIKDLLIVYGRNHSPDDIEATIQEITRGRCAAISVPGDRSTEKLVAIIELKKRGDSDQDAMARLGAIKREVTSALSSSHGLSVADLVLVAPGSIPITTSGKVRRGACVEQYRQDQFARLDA

[5] = viability loss of HPDE-C7K cells – cell-based, fluorescence, HTS, primary screen (AID 431); format: functional; conditions: Homo sapiens
[6] = viability of HCT116 lacking mutant beta-catenin – cell-based, human colon tumor, dose response (AID 1045); format: functional;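 further: HCT116 colon tumor cells with beta catenin knocked out; cells exposed to compound for 60 hours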
Vero [7] = assay: cells; format: functional, cell-based; conditions: Chlorocebus sabaeus
[8] = viability of PTEN-deleted HCT116 cells – cell-based, HCT116 PTEN knockout, dose response (AID 1047); format: functional;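 further: HCT116 colon tumor cells with PTEN knocked out; cells exposed to compound for 60 hours before readout; potency for loss of cell viability measured by luminescence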
[9] = system: Streptococcus sp. 'group A'; assay: Streptococcus pyogenes SK(-)GAS viability under kanamycin – luminescence, BacTiterGlo, confirmation, counter-screen for streptokinase expression inhibitor project, dose response (AID 1900); format: functional, organism-based
[10] = molecular target: T5, Zinc finger protein mex-5 (Caenorhabditis elegans, UniProt Q9XUB2); assay: potency of MEX-5 RNA-binding blockers – biochemical, C. elegans, fluorescence polarization, dose response (AID 1960)
T5 sequence (Q9XUB2 whole entry): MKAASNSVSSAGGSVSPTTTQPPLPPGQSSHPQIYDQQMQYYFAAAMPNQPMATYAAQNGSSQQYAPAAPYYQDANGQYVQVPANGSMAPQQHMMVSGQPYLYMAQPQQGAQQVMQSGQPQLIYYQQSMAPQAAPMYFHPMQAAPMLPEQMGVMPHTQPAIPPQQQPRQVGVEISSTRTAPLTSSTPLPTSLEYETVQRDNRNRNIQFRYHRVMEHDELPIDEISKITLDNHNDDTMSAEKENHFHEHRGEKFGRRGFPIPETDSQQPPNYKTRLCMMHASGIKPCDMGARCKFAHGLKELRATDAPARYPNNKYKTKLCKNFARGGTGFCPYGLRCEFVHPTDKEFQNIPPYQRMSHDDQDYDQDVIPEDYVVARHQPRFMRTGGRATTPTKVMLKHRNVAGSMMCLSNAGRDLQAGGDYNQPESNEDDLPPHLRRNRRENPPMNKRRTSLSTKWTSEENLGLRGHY

[11] = molecular target: T6, DNA repair and recombination protein RAD54-like (Homo sapiens, UniProt Q92698); assay: RAD54 Holliday junction migration blockers – biochemical, fluorescence, cherry-picked samples, dose series, confirmation (AID 651657); format: functional
T6 sequence (Q92698 whole entry): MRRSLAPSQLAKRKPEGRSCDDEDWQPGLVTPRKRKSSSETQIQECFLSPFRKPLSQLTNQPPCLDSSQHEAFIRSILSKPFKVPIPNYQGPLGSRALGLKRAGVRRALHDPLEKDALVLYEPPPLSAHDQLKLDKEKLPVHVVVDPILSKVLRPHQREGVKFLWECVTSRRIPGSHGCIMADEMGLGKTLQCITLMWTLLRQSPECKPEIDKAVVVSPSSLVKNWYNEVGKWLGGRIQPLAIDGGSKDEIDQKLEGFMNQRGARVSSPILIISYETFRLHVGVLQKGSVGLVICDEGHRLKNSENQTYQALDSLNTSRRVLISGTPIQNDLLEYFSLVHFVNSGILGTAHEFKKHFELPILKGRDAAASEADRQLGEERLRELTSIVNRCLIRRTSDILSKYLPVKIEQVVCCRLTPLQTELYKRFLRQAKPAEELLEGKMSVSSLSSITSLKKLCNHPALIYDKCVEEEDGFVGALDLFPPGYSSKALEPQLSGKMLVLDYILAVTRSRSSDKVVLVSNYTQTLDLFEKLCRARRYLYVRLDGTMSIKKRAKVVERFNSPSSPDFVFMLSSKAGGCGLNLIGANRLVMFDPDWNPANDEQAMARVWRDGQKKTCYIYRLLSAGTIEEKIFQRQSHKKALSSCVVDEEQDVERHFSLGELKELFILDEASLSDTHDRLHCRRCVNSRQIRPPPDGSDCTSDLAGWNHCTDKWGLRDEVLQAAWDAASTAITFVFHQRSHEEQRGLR

[12] = molecular target: T7, RNA-binding protein pos-1 (Caenorhabditis elegans, UniProt G5EF15); assay: disruptors of C. elegans POS-1 RNA interaction – biochemical, fluorescence polarization, dose response (AID 1964);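 further: purified POS-1 fused to maltose binding protein made in E. coli; potency of compounds blocking POS-1 binding to fluorescent RNA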
T7 sequence (G5EF15 whole entry): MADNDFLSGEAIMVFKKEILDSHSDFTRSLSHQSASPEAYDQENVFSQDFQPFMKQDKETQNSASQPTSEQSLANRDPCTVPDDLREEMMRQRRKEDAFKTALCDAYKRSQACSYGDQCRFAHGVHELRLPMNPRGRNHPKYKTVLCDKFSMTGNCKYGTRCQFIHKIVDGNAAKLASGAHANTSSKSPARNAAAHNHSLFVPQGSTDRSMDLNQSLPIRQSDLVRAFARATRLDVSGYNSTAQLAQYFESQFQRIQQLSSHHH

HEK293 [13] = assay: cells; format: functional, cell-based; conditions: Homo sapiens
[14] = A Cell Based Secondary Assay To Explore Cytotoxicity of Compounds that Sensitize Mycobacterium Tuberculosis to Beta-Lactam Antibiotics.; format: functional
HEK293 [15] = assay: inhibition of NOD1-driven NF-kB reporter – cell-based, luminescence, uHTS, primary screen (AID 1578); format: functional; conditions: Homo sapiens
Vero [16] = assay: mammalian cell viability reduction – secondary assay, cytotoxicity control for West Nile virus antiviral project, dose response (AID 1650); format: functional; conditions: Chlorocebus sabaeus
HEK293 [17] = assay: NOD2 signaling inhibitors in MDP-stimulated cells, cell-based, uHTS, luminescence (AID 2001); format: functional; conditions: Homo sapiens
HEK293 [18] = assay: cells; format: functional, cell-based; conditions: Homo sapiens; remark: listed apart in the source
Vero [19] = assay: cells; format: functional; conditions: Chlorocebus sabaeus
[20] = molecular target: T8, DNA repair protein RAD52 homolog (Homo sapiens, UniProt P43351); format: functional, biochemical
T8 sequence (P43351 whole entry): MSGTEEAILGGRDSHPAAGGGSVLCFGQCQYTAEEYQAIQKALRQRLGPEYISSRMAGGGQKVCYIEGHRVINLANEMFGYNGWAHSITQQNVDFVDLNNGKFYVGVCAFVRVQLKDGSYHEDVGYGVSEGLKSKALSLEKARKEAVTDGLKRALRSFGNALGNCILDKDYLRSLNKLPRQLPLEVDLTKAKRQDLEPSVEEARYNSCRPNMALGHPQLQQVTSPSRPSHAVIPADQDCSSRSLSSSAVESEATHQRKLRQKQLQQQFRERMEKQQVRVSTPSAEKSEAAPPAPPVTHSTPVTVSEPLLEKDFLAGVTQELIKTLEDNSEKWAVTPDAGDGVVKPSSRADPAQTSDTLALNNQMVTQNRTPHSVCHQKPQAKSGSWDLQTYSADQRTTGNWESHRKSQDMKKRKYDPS

HEK293 [21] = assay: HEK293T cell viability loss, resazurin readout – resazurin fluorescence, cytotoxicity control for NF-kB activator project, SAR follow-up (AID 493251); format: functional, cell-based; conditions: Homo sapiens

## O=c1cc[nH]c(=O)[nH]1 [URACIL]
SN12K1
  GI50: 315 µM (inactive)
P388/ADR
  GI50: 292 µM (inactive)
P388
  GI50: 164 µM (inactive)

## CCCCCCCCCCCCCCC[C@@H](O)[C@@H](N)CO [DIHYDROSPINGOSINE]
[1]
  IC50: 13.4 µM (active)
Streptokinase A
  EC50: > 150 µM (not active)
Bcl-2-related protein A1
  IC50: > 20 µM (inactive)
[2]
  IC50: 15.5 µM (active)
Streptococcus
  EC50: 8.91 µM (active)
[3]
  EC50: 14 µM (active)
[4]
  AC50: 5.6 µM (active)
[5]
  EC50: 9.93 µM (active)
[6]
  EC50: 7.58 µM (active)
Vero [7]
  IC50: > 25 µM (active)
[8]
  EC50: 8.66 µM (active)
[9]
  EC50: 1.34 µM (active)

## CCNC(=O)c1cc2c(=O)n3cccc(C)c3nc2n(CCc2ccccc2)c1=N
[10]
  EC50: 30 µM (active)
[11]
  AC50: 17.9 µM (active)
[12]
  EC50: 4.95 µM (inconclusive)

## CC1OC1C(=O)C1(O)C(C)C(O)C23OC2(C(O)c2c(O)cccc2C3=O)C1O (stereo not given) [CERVICARCIN]
SN12K1
  GI50: 0.225 µM (active)
P388/ADR
  GI50: 0.18 µM (active)
P388
  GI50: 0.144 µM (active)

## Cn1c(/C=C/c2ccc(Cl)cc2)c([N+](=O)[O-])c(=O)n(C)c1=O
HEK293 [13]
  IC50: > 20 µM (inactive)
[14]
  CC50: 30 µM (active)
HEK293 [15]
  EC50: 16 µM (active)
Vero [16]
  CC50: 15.7 µM (active)
HEK293 [17]
  IC50: 8.84 µM (active)
HEK293 [18]
  IC50: 8.13 µM (active)
Vero [19]
  CC50: 19.1 µM (active)
Vero [7]
  IC50: > 25 µM (active)

## N=c1c(C(=O)NCCN2CCOCC2)cc2c(=O)n3ccccc3nc2n1CCc1ccccc1
[10]
  EC50: > 300 µM (not active)
[11]
  AC50: 25.2 µM (active)
[20]
  AC50: 10.5 µM (active)
[12]
  EC50: > 300 µM (not active)

## COc1ccc2c3c1O[C@H]1C[C@@H](O)C=C[C@@]31CCN(C)C2 [GALANTAMINE]
SN12K1
  GI50: > 150 µM (inactive)
P388/ADR
  GI50: > 150 µM (inactive)
P388
  GI50: > 150 µM (inactive)

## COc1ccc(-c2nc(CSCC(=O)NC3CC3)c(C)o2)cc1
HEK293 [21]
  IC50: > 80 µM (inactive)

## Cc1ccc2nc3c(C(=O)NCCN(C)C)cccc3cc2c1
SN12K1
  GI50: 0.968 µM (active)
P388/ADR
  GI50: 1.85 µM (inactive)
P388
  GI50: 0.414 µM (active)
